Results from the supplement of paper PMC10307832.

Tests used:
Test in all cases: relative viability (nuclei count vs DMSO), 5 days (fraction); higher = more cells survive
[1] = compound: N[C@@H]1CCCN(c2c(/C=C3\SC(=O)NC3=O)cccc2-c2ccccc2)C1 [AZD1208] + CS(=O)(=O)N1CCN(Cc2cc3nc(-c4cccc5[nH]ncc45)nc(N4CCOCC4)c3s2)CC1 [Pictilisib] (partner 1 µM)
Method in brief: (§1)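 Each reported value is a median over duplicate plates. It expresses relative viability: treated-well nuclei count divided by vehicle-well nuclei count. Lung cancer cell lines in 1536-well plates were dosed by pin tool a day after seeding, alone with one drug or with a fixed anchor-drug dose plus five library-drug doses (not always all listed) in √10 steps, and nuclei were counted after 5 days.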

[2] = compound: CN1CCN(CC1)C2=CC(=C(C=C2)NC3=NC(=C(S3)C(=O)C4=C(C=CC=C4Cl)Cl)N)OC [XMD14-99] + O=C(c1cc(Cc2n[nH]c(=O)c3ccccc23)ccc1F)N1CCN(C(=O)C2CC2)CC1 [Olaparib] (partner 8 µM)
Method in brief: as §1

[3] = compound: CN1CCN(CC1)C2=CC(=C(C=C2)NC3=NC(=C(S3)C(=O)C4=C(C=CC=C4Cl)Cl)N)OC [XMD14-99] + CCNC(=O)c1noc(-c2cc(C(C)C)c(O)cc2O)c1-c1ccc(CN2CCOCC2)cc1 [Luminespib] (partner 0.01 µM)
Method in brief: as §1

[4] = compound: N[C@@H]1CCCN(c2c(/C=C3\SC(=O)NC3=O)cccc2-c2ccccc2)C1 [AZD1208] + NC(=O)Nc1cc(-c2cccc(F)c2)sc1C(=O)N[C@H]1CCCNC1 [AZD7762] (partner 0.2 µM)
Method in brief: as §1

| Cell Line | relative viability ([1]; first compound 0.08 µM) | relative viability ([1]; first compound 0.253 µM) | relative viability ([1]; first compound 0.8 µM) | relative viability ([1]; first compound 2.53 µM) | relative viability ([1]; first compound 8 µM) | relative viability ([2]; first compound 0.08 µM) | relative viability ([2]; first compound 0.8 µM) | relative viability ([2]; first compound 2.53 µM) | relative viability ([2]; first compound 8 µM) | relative viability ([3]; first compound 0.08 µM) | relative viability ([3]; first compound 0.8 µM) | relative viability ([3]; first compound 2.53 µM) | relative viability ([3]; first compound 8 µM) | relative viability ([4]; first compound 0.08 µM) | relative viability ([4]; first compound 0.253 µM) | relative viability ([4]; first compound 0.8 µM) | relative viability ([4]; first compound 2.53 µM) | relative viability ([4]; first compound 8 µM) |
| --- | --- | --- | --- | --- | --- | --- | --- | --- | --- | --- | --- | --- | --- | --- | --- | --- | --- | --- |
| NCI-H2009 | 0.725 | 0.811 | 0.75 | 0.553 | 0.714 | 0.662 | 0.835 | 0.656 | 0.538 | 1.08 | 0.949 | 0.958 | 0.871 |  |  |  |  |  |
| SW 1573 | 0.411 | 0.418 | 0.421 | 0.347 | 0.344 | 0.445 | 0.457 | 0.488 | 0.308 | 0.157 | 0.365 | 0.236 | 0.214 |  |  |  |  |  |
| NCI-H522 |  |  |  |  |  | 0.586 | 0.808 | 0.594 | 0.557 | 1.05 | 1.28 | 1.2 | 1.18 | 0.773 | 0.892 | 0.756 | 0.747 | 0.584 |
| NCI-H1299 | 0.731 | 0.725 | 0.818 | 0.653 | 0.562 | 0.929 | 0.969 | 0.935 | 0.742 |  |  |  |  |  |  |  |  |  |
| NCI-H1650 | 0.529 | 0.575 | 0.434 | 0.395 | 0.41 | 0.834 | 0.597 | 0.639 | 0.734 | 0.21 | 0.208 | 0.189 | 0.188 |  |  |  |  |  |
| NCI-H2023 | 0.193 | 0.223 | 0.203 | 0.183 | 0.209 | 0.442 |  | 0.311 | 0.122 | 0.719 |  | 0.617 | 0.471 |  |  |  |  |  |
| NCI-H1648 |  |  |  |  |  | 0.95 | 0.433 | 0.654 | 0.316 |  |  |  |  | 0.584 | 0.618 | 0.684 | 0.533 | 1.28 |
